Experimental data taken from the supplement of paper PMC10307832.

Columns and labels:
Assay in all cases: relative viability (nuclei count vs DMSO), 5 days (fraction); higher = more cells survive
NCI-H1734 = tested on: NCI-H1734
Outline: (§1)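 Values are medians from duplicate plates. Each reflects relative viability, defined as the nuclei count of treated wells over that of vehicle wells. Lung cancer cell lines in 1536-well plates were pin-tool dosed one day after seeding with one drug alone or with a fixed anchor-drug dose plus five library-drug doses (not always all listed) in √10 steps, then fixed, stained and imaged at 4× after 5 days.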

NCI-H1755 = tested on: NCI-H1755
Outline: as §1

NCI-H2126 = tested on: NCI-H2126
Outline: as §1

LC-2-ad = tested on: LC-2-ad
Outline: as §1

HCC-44 = tested on: HCC-44
Outline: as §1

NCI-H3122 = tested on: NCI-H3122
Outline: as §1

NCI-H1915 = tested on: NCI-H1915
Outline: as §1

EMC-BAC-2 = tested on: EMC-BAC-2
Outline: as §1

NCI-H727 = tested on: NCI-H727
Outline: as §1

HCC-15 = tested on: HCC-15
Outline: as §1

NCI-H2023 = tested on: NCI-H2023
Outline: as §1

NCI-H1395 = tested on: NCI-H1395
Outline: as §1

HOP-62 = tested on: HOP-62
Outline: as §1

LU99A = tested on: LU99A
Outline: as §1

SW 1573 = tested on: SW 1573
Outline: as §1

NCI-H1437 = tested on: NCI-H1437
Outline: as §1

BEN = tested on: BEN
Outline: as §1

NCI-H2170 = tested on: NCI-H2170
Outline: as §1

Cc1csc(=NC2CCCCC2)n1/N=C/c1ccc(O)c(O)c1O [MIM1] + CC1(C)CCC(c2ccc(Cl)cc2)=C(CN2CCN(c3ccc(C(=O)NS(=O)(=O)c4ccc(N[C@H](CCN5CCOCC5)CSc5ccccc5)c(S(=O)(=O)C(F)(F)F)c4)cc3)CC2)C1 [Navitoclax] (partner 0.5 µM)
relative viability (NCI-H1734; first compound 0.2 µM): 0.807
relative viability (NCI-H1734; first compound 0.6325 µM): 0.908
relative viability (NCI-H1734; first compound 2 µM): 0.783
relative viability (NCI-H1734; first compound 6.325 µM): 0.467
relative viability (NCI-H1734; first compound 20 µM): 0.202
relative viability (NCI-H1755; first compound 0.2 µM): 1.01
relative viability (NCI-H1755; first compound 0.6325 µM): 0.995
relative viability (NCI-H1755; first compound 2 µM): 1.03
relative viability (NCI-H1755; first compound 6.325 µM): 0.703
relative viability (NCI-H1755; first compound 20 µM): 0.557
relative viability (NCI-H2126; first compound 0.2 µM): 0.898
relative viability (NCI-H2126; first compound 0.6325 µM): 0.854
relative viability (NCI-H2126; first compound 2 µM): 0.974
relative viability (NCI-H2126; first compound 6.325 µM): 0.831
relative viability (NCI-H2126; first compound 20 µM): 0.812
relative viability (LC-2-ad; first compound 0.2 µM): 0.491
relative viability (LC-2-ad; first compound 0.6325 µM): 0.516
relative viability (LC-2-ad; first compound 2 µM): 0.498
relative viability (LC-2-ad; first compound 6.325 µM): 0.251
relative viability (LC-2-ad; first compound 20 µM): 0.135
relative viability (HCC-44; first compound 0.2 µM): 0.93
relative viability (HCC-44; first compound 0.6325 µM): 1.01
relative viability (HCC-44; first compound 2 µM): 0.74
relative viability (HCC-44; first compound 6.325 µM): 0.612
relative viability (HCC-44; first compound 20 µM): 0.277
relative viability (NCI-H3122; first compound 0.2 µM): 1.06
relative viability (NCI-H3122; first compound 0.6325 µM): 1.09
relative viability (NCI-H3122; first compound 2 µM): 1.1
relative viability (NCI-H3122; first compound 6.325 µM): 0.761
relative viability (NCI-H3122; first compound 20 µM): 0.426
relative viability (NCI-H1915; first compound 0.2 µM): 0.791
relative viability (NCI-H1915; first compound 0.6325 µM): 0.696
relative viability (NCI-H1915; first compound 2 µM): 0.781
relative viability (NCI-H1915; first compound 6.325 µM): 0.62
relative viability (NCI-H1915; first compound 20 µM): 0.656
relative viability (EMC-BAC-2; first compound 0.2 µM): 1.11
relative viability (EMC-BAC-2; first compound 0.6325 µM): 1.13
relative viability (EMC-BAC-2; first compound 2 µM): 1.27
relative viability (EMC-BAC-2; first compound 6.325 µM): 1.05
relative viability (EMC-BAC-2; first compound 20 µM): 0.274
relative viability (NCI-H727; first compound 0.2 µM): 0.441
relative viability (NCI-H727; first compound 0.6325 µM): 0.493
relative viability (NCI-H727; first compound 2 µM): 0.324
relative viability (NCI-H727; first compound 6.325 µM): 0.346
relative viability (NCI-H727; first compound 20 µM): 0.27
relative viability (HCC-15; first compound 0.2 µM): 0.682
relative viability (HCC-15; first compound 0.6325 µM): 0.693
relative viability (HCC-15; first compound 2 µM): 0.689
relative viability (HCC-15; first compound 6.325 µM): 0.42
relative viability (HCC-15; first compound 20 µM): 0.382
relative viability (NCI-H2023; first compound 0.2 µM): 0.992
relative viability (NCI-H2023; first compound 0.6325 µM): 1.03
relative viability (NCI-H2023; first compound 2 µM): 0.91
relative viability (NCI-H2023; first compound 6.325 µM): 0.683
relative viability (NCI-H2023; first compound 20 µM): 0.432
relative viability (NCI-H1395; first compound 0.2 µM): 1.06
relative viability (NCI-H1395; first compound 0.6325 µM): 1.1
relative viability (NCI-H1395; first compound 2 µM): 1.63
relative viability (NCI-H1395; first compound 6.325 µM): 0.646
relative viability (NCI-H1395; first compound 20 µM): 0.425
relative viability (HOP-62; first compound 0.2 µM): 1.11
relative viability (HOP-62; first compound 0.6325 µM): 1.11
relative viability (HOP-62; first compound 2 µM): 0.525
relative viability (HOP-62; first compound 6.325 µM): 0.86
relative viability (HOP-62; first compound 20 µM): 0.559
relative viability (LU99A; first compound 0.2 µM): 0.931
relative viability (LU99A; first compound 0.6325 µM): 0.817
relative viability (LU99A; first compound 2 µM): 0.781
relative viability (LU99A; first compound 6.325 µM): 0.836
relative viability (LU99A; first compound 20 µM): 0.18
relative viability (SW 1573; first compound 0.2 µM): 0.973
relative viability (SW 1573; first compound 0.6325 µM): 0.967
relative viability (SW 1573; first compound 2 µM): 1.08
relative viability (SW 1573; first compound 6.325 µM): 0.909
relative viability (SW 1573; first compound 20 µM): 0.549
relative viability (NCI-H1437; first compound 0.2 µM): 0.989
relative viability (NCI-H1437; first compound 0.6325 µM): 1.1
relative viability (NCI-H1437; first compound 2 µM): 0.998
relative viability (NCI-H1437; first compound 6.325 µM): 0.654
relative viability (NCI-H1437; first compound 20 µM): 0.27
relative viability (BEN; first compound 0.2 µM): 0.0709
relative viability (BEN; first compound 0.6325 µM): 0.0746
relative viability (BEN; first compound 2 µM): 0.0631
relative viability (BEN; first compound 6.325 µM): 0.0911
relative viability (BEN; first compound 20 µM): 0.0543
relative viability (NCI-H2170; first compound 0.2 µM): 0.571
relative viability (NCI-H2170; first compound 0.6325 µM): 0.636
relative viability (NCI-H2170; first compound 2 µM): 0.549
relative viability (NCI-H2170; first compound 6.325 µM): 0.468
relative viability (NCI-H2170; first compound 20 µM): 0.298
